One data set deals with Shizosaccharomyces pombe. Nature of the data set: Antimicrobial activity, agar dilution method in Sabouraud medium. It counts as cell-based. The settings on record: 48 hours incubation at 25° C. The protocol:
(§1) Antimicrobial activity of FR901228 was performed by an agar dilution method in Sabouraud medium.
(§2) Minimum inhibitory concentration (MIC) is expressed in terms of μg/ml after 48 hours incubation at 25° C.

Data set [1] has as its system Aureobasidium pullulans IFO 4466. The description is as above. The class given is cell-based. The settings on record: 48 hours incubation at 25° C. The protocol:
as §1, §2

The test system of the next data set is Aspergillus niger. Described as above. The class given is cell-based. The settings on record: 48 hours incubation at 25° C. The protocol: as §1, §2
Data set [2] in a line: Solubility of FR901228 substance in solvents. The class given is physicochemical.
A further data set concerns P388 murine leukemia. Nature of the data set: Antitumor activity against P388 murine leukemia. It counts as in vivo, BDFl mice. The following applies: for Mean Survival Time: once daily for four days from 24 hours after inoculation, BDFl mice; for Time (%) (T/C % of mean survival time): 100× treated group/control group. The protocol: Antitumor activity of FR901228 substance was determined in murine tumor system. P388 leukemia cells […] were implanted intraperitoneally into BDFl mice (female, 8 weeks old). Twenty-four hours after the inoculation of tumor cells, FR901228 substance was administered intraperitoneally to mice. Administrations of FR901228 substance were continued intraperitoneally once daily for another three days. FR901228 substance was suspended in 0.9% saline. Control mice received intraperitoneal doses of 0.9% saline.
Antitumor activity was expressed as the mean survival time of group and also expressed as the T/C % (100× treated group/control group) of mean survival time.

Another data set relates to SW480 (colon cancer). Nature of the data set: Inhibition of human tumor cell growth in vitro (MTT cytotoxicity test). It counts as cell-based. The following applies: four days. How it is done: (§3) The cytotoxicity test was performed in microtiter plates, with each well containing 3×10^3 tumor cells in 100 μl Dulbecco's minimum essential medium supplemented with 10% fetal calf serum, penicillin (50 units/ml) and streptomycin (50 μg/ml). The cells were incubated at 37° C. for four days and the colorimetric MTT [3-(4,5-dimethylthiazol-2-yl)-2,5-diphenyl tetrazolium bromide, made by Sigma] assay was performed according to the method described by Mosmann (J. Immunol. Methods, 65, 55-63, 1983). MTT was dissolved in phosphate buffer solution (PBS) at 5 mg/ml and filtered to sterilize and remove a small amount of insoluble residue. After the culture of human tumor cells was terminated, this MTT solution (10 μl per 100 μl medium) was added to all wells of an assay, and plates were further incubated at 37° C. for 4 hours. Acid-isopropanol (100 μl of 0.04N HCl in isopropanol) was added to all wells and mixed thoroughly to dissolve the dark blue crystals. After all crystals were dissolved, the plates were read on a 2-wavelength microplate photometer (Model MTP-22; Corona Electric Co., Ltd., Katsuta, Japan) at 550 nm, a reference wavelength of 660 nm. The object compound of this invention was dissolved in methanol and diluted in Dulbecco's minimum essential medium and added to the culture to give final concentration of 1 μg/ml or less.

The subject of another data set is A549 (lung cancer). The description is as above. The class given is cell-based. The following applies: four days. How it is done: as §3
The next data set concerns MCF-7 (breast cancer). The description is as above. The class given is cell-based. The settings on record: four days. How it is done:
as §3

[3] abbreviates: 0.32 mg/kg/day intraperitoneally.
The mark [4] stands for this setting: 1.0 mg/kg/day intraperitoneally.

In brackets after ≈: the same amount, converted by molar mass.

With `C/C=C1\NC(=O)[C@H]2CSSCC/C=C/[C@H](CC(=O)N[C@H](C(C)C)C(=O)N2)OC(=O)[C@H](C(C)C)NC1=O` [FR901228 substance], the MIC in the data set with Shizosaccharomyces pombe is 10 µg/mL (≈ 18.5 µM); in data set [1], 10 µg/mL (≈ 18.5 µM); against Aspergillus niger, 100 µg/mL (≈ 185 µM). Further, the Solubility entry is “soluble” in data set [2] (chloroform); “sparingly soluble” in data set [2] (ethanol); “soluble” in data set [2] (ethyl acetate); “insoluble” in data set [2] (hexane); “sparingly soluble” in data set [2] (methanol); “insoluble” in data set [2] (water). Also, the “Mean Survival Time” value with P388 murine leukemia (setting [3]) stood at 14.25 days; in the data set with P388 murine leukemia (setting [4]) it was 15.25 days. Also, the figures for the “Time (%) (T/C % of mean survival time)” value in the data set on P388 murine leukemia (setting [3]) and in the data set on P388 murine leukemia (setting [4]) were 158.3% and 169.4%, respectively. The IC50 worked out at 0.00057 µg/mL (≈ 0.00105 µM) in the data set on SW480 (colon cancer), 0.00082 µg/mL (≈ 0.00152 µM) in the data set on A549 (lung cancer) and 0.00099 µg/mL (≈ 0.00183 µM) in the data set on MCF-7 (breast cancer).

These data come from patent US4977138A, “FR901228 substance and preparation thereof” (Fujisawa Pharmaceutical Co., Ltd., priority 1988, dated 1990).
